What all share (format): physicochemical
Data set [1] is described as follows: Carbon nanotube solubilizing capability of saccharide aqueous solutions (absorbance of supernatant at 500 nm). As to conditions: for amount of the solubilized carbon nanotube (in words): at the investigated concentrations of Table 1; for A500: about 4 mg SWCNT-1 per 1 mL, ultra sound 5 min. Here is the method: (§1) The amount of the carbon nanotube dissolved in the solution can be measured, for example, by recovering the carbon nanotube by centrifugation at 70,000×g for 15 minutes and measuring the weight thereof. Alternatively, as described in the literature “Chem. Commun.”, P. 193 (2001), the concentration of the carbon nanotube has quite a high correlation with the absorbance at 500 nm, and the water-soluble xylan has almost no absorption at the wavelength. Thus, the concentration of the carbon nanotube is easily determined by measuring the absorbance of the solution at 500 nm, unless the solution contains any other substances having absorption at around 500 nm. In the case where a hardly soluble or insoluble substance is used as another substance, the method for measuring the concentration of the substance in the solution can be appropriately selected in depending on the substance.
A solubilizing capability of the water-soluble xylan was compared with those of other saccharides. As the water-soluble xylan, glucuronoxylan (manufactured by Institute of Chemistry, Slovak Academy of Sciences; the number average molecular weight: 18,000; xylose residue: 4-O-methyl-D-glucuronic acid reside=10:1; no acetylation) was used. For comparison, various saccharide solutions of amylose (the number average molecular weight of 2,900), pectin (derived from citrus fruit), polygalacturonic acid, methylcellulose, fucoidan, xanthan gum, carboxymethyl cellulose, an Abelmoschus manihot extraction liquid, a Hydrangea paniculata extraction liquid, gum arabic, β-1,3-glucan (schizophyllan, curdlan), and xylo-oligosaccarides (polymerization degrees of 2 and 5) were used.
To 1 mL of each of the saccharide aqueous solutions, about 4 mg of the single layer carbon nanotube powder (SWCNT-1 manufactured by Shenzhen Nanotech Port Co., Ltd.) was added and then stirred for about 10 seconds with a Vortex mixer. The mixture was applied ultra sound with a bath type sonicator (UT-205 manufactured by Sharp Corporation) at a room temperature (15° C. to 20° C.) for 5 minutes to dissolve the carbon nanotube. The obtained solution was centrifuged at 2,200×g for 10 minutes, and then the supernatant thereof was collected. The amount of the dissolved carbon nanotube was estimated by measuring the absorbance of the supernatant at 500 nm. The saccharides vary from one another in solubility to water.
Within the same concentration range, the absorbances at 500 nm of the solutions containing another saccharide were 3 or less.

A short description of data set [2]: Preparation of carbon nanotube solution with water-soluble xylan: absorbance at 500 nm and dissolved carbon nanotube. The method, then: as §1
As water-soluble xylan, glucuronoxylan (manufactured by Institute of Chemistry, Slovak Academy of Sciences; the number average molecular weight: 18,000; xylose residue: 4-O-methyl-D-glucuronic acid reside=10:1; no acetylation; derived from beech) was used. To 1 L of a 0.4 mg/mL glucuronoxylan aqueous solution, 2 g of a single-layer carbon nanotube powder (SWCNT-1 manufactured by Shenzhen Nanotech Port Co., Ltd.) was added, and then stirred with a magnetic stirrer. The mixture was sequentially applied ultra sound by an ultra sound dispersing machine (Model UH-600SR, HO-F36 flanged chip, RD-36 continuous holder; manufactured by SMT Co., Ltd.) at a room temperature (15° C. to 20° C.) for 130 minutes at a flow rate of 1 L/min to dissolve and disperse the carbon nanotube. The obtained solution was centrifuged at 2,200×g for 15 minutes, and then collected the supernatant. The supernatant was a blackish solution.
The obtained solution was centrifuged at 70,000×g for 10 minutes to collect the carbon nanotube as a precipitate. To the obtained precipitate, 50 mL of the aforementioned glucuronoxylan aqueous solution was added, and the carbon nanotube was dispersed by applying an ultra sound at a room temperature (15° C. to 20° C.) for 5 minutes with a bath type sonicator (Branson 1200).
To 10 L of the water-soluble xylan solution prepared by Preparative Example 1, 5 g of a single-layer carbon nanotube powder (SWCNT-1 manufactured by Shenzhen Nanotech Port Co., Ltd.) was added and then stirred. The mixture was sequentially applied ultra sound by an ultra sound dispersing machine (Model UH-600SR, HO-F36 flanged chip, RD-36 continuous holder; manufactured by SMT Co., Ltd.) at a room temperature (15° C. to 20° C.) for 90 minutes at a flow rate of 1 L/min to dissolve and disperse the carbon nanotube. The obtained solution was centrifuged at 2,200×g for 15 minutes, and then the supernatant was collected. […]

Data set [3] can be described thus: Carbon nanotube solubilizing capability of saccharide aqueous solutions (absorbance of supernatant at 500 nm). As to conditions: Example 2-2, FIG. 4; concentration dependency.
The mark [4] stands for this setting: saccharide 0.40 mg/mL, supernatant after 2,200xg 10 min.
The mark [5] stands for this setting: Example 1-1: 0.4 mg/mL glucuronoxylan, 2 g SWCNT-1 per 1 L, ultra sound 130 min, supernatant after 2,200xg 15 min.
Where [6] appears, read: Example 1-1: 70,000xg precipitate re-dispersed in 50 mL glucuronoxylan solution, ultra sound 5 min.
Setting [7] is: saccharide 1.00 mg/mL, supernatant.
The mark [8] stands for this setting: saccharide 2.00 mg/mL, supernatant.
Where [9] appears, read: saccharide 10.00 mg/mL, supernatant.
[10] abbreviates: saccharide 2.50 mg/mL, supernatant.
[11] abbreviates: saccharide 5 mg/mL (5.00), supernatant.

With glucuronoxylan [Water-soluble Xylan], the “amount of the solubilized carbon nanotube (in words)” value (“amount” for short) in data set [1] was “largest”. The same molecule showed an A500 in data set [1] (setting [4]) of 10.70. In data set [2] (setting [5]), the “absorbance at 500 nm” value was found to be 7.57 and the “carbon nanotube contained in solution” value was “about 282 μg/mL”. Further, in data set [2] (setting [6]), the “absorbance at 500 nm” value stood at 122 and the “carbon nanotube contained in solution” value was “about 4.5 mg/mL”. Further, in data set [3], the “saccharide concentration showing the maximum absorbance at 500 nm” value came out at 0.2 mg/mL.

For xanthan gum, the “amount” value in data set [1] is listed as “close to that when using the water-soluble xylan”. Besides, the A500 stood at 2.79 in data set [1] (setting [7]) and 6.91 in data set [1] (setting [8]).

Consider gum arabic, for which, in data set [1], the “amount” value was “close to that when using the water-soluble xylan”. Besides, the A500 in data set [1] (setting [7]) turned out to be 0.73; in data set [1] (setting [9]), 4.30.

On to fucoidan, for which the “amount” value in data set [1] is reported as “close to that when using the water-soluble xylan”. Further, the A500 in data set [1] (setting [10]) is recorded as 1.33; in data set [1] (setting [9]), 6.80.

Regarding polygalacturonic acid, the “amount” value in data set [1] is listed as “close to that when using the water-soluble xylan”. In addition, the A500 in data set [1] (saccharide 1.90 mg/mL, supernatant) is given as 2.18; in data set [1] (saccharide 2.70 mg/mL, supernatant), 5.26.

Consider schizophyllan, for which the A500 in data set [1] (saccharide 0.20 mg/mL, supernatant) is given as 0.12; in data set [1] (setting [4]), 0.95.

As to `OC1OC[C@@H](O[C@@H]2OC[C@@H](O)[C@H](O)[C@H]2O)[C@H](O)[C@H]1O` (stereo partly drawn), the “amount” value in data set [1] is on record as “did not exhibit solubilization of carbon nanotube at all”. This molecule also had an A500 in data set [1] (saccharide 16 mg/mL, supernatant) of 0.00.

Take “carboxymethyl cellulose [Carboxy Methylcellulose]”: the “amount” value in data set [1] was “close to that when using the water-soluble xylan”. Also, the results for the A500 in data set [1] (setting [10]) and in data set [1] (setting [9]) were 5.64 and 2.37, respectively.

In the case of pectin, the “amount” value in data set [1] is given as “close to that when using the water-soluble xylan”. In addition, the A500 in data set [1] (setting [10]) is on record as 3.48; in data set [1] (setting [9]), 6.28.

With curdlan, the A500 in data set [1] (setting [4]) amounted to 0.02.

On to amylose, for which the results for the A500 in data set [1] (setting [11]) and in data set [1] (setting [9]) were 0.02 and 0.06, respectively.

`OC1OC[C@@H](O[C@@H]2OC[C@@H](O[C@@H]3OC[C@@H](O[C@@H]4OC[C@@H](O[C@@H]5OC[C@@H](O)[C@H](O)[C@H]5O)[C@H](O)[C@H]4O)[C@H](O)[C@H]3O)[C@H](O)[C@H]2O)[C@H](O)[C@H]1O` (stereo partly drawn): in data set [1], the “amount” value is on record as “did not exhibit solubilization of carbon nanotube at all”. In data set [1] (setting [11]), this molecule had an A500 of 0.00.

For methylcellulose, the A500 in data set [1] (setting [7]) amounted to 0.16; in data set [1] (setting [8]) it was 0.80.
